Assay results as given in patent US20090062273A1, “3-H-pyrazolopyridines and salts thereof, pharmaceutical compositions comprising same, methods of preparing same and uses of same” (priority 2006, published 2009).
Each block holds one compound with its values, some of them ahead of it.

Assays:
Tie2 = Tie2 (Homo sapiens, UniProt Q02763); assay: Tie-2-Kinase HTRF-Assay without kinase preactivation; type: biochemical; design: fusion protein of GST and the intracellular domains of Tie-2; GST; made in house; host or cells: insect cells (Hi-5); settings: GST-Tie-2 intracellular domains, 10 μM ATP
Excerpt: Tie2-inhibitory activity of compounds of the present invention was quantified employing two Tie2 HTRF assay as described in the following paragraphs.
A recombinant fusion protein of GST and the intracellular domains of Tie-2, expressed in insect cells (Hi-5) and purified by Glutathion-Sepharose affinity chromatography was used as kinase. Alternatively, commercially available GST-Tie2-fusion protein (Upstate Biotechnology, Dundee, Scotland) can be used As substrate for the kinase reaction the biotinylated peptide biotin-Ahx-EPKDDAYPLYSDFG (C-terminus in amid form) was used which can be purchased e.g. from the company Biosynthan GmbH (Berlin-Buch, Germany). Detection of phosphorylated product is achieved specifically by a trimeric detection complex consisting of the phosphorylated substrate, streptavidin-XLent (SA-XLent) which binds to biotin, and Europium Cryptate-labeled anti-phosphotyrosine antibody PT66 which binds to phosphorylated tyrosine.
Tie-2 (3.5 ng/measurement point) was incubated for 60 min at 22° C. in the presence of 10 μM adenosine-tri-phosphate (ATP) and 1 μM substrate peptide (biotin-Ahx-EPKDDAYPLYSDFG-NH2) with different concentrations of test compounds (0 μM and concentrations in the range 0.001-20 μM) in 5 μl assay buffer [50 mM Hepes/NaOH pH 7, 10 mM MgCl2, 0.5 mM MnCl2, 1.0 mM dithiothreitol, 0.01% NP40, protease inhibitor mixture (“Complete w/o EDTA” from Roche, 1 tablet per 2.5 ml), 1% (v/v) dimethylsulfoxide]. The reaction was stopped by the addition of 5 μl of an aqueous buffer (25 mM Hepes/NaOH pH 7.5, 0.28% (w/v) bovine serum albumin) containing EDTA (90 mM) and the HTRF (Homogeneous Time Resolved Fluorescence) detection reagents streptavidine-XLent (0.2 μM, from Cis Biointernational, Marcoule, France) and PT66-Eu-Chelate (0.3 ng/μl; a europium-chelate labelled anti-phospho-tyrosine antibody from Perkin Elmer).
(§1) The resulting mixture was incubated 1 h at 22° C. to allow the binding of the biotinylated phosphorylated peptide to the streptavidine-XLent and the PT66-Eu-Chelate. Subsequently the amount of phosphorylated substrate peptide was evaluated by measurement of the resonance energy transfer from the PT66-Eu-Chelate to the streptavidine-XLent. Therefore, the fluorescence emissions at 620 nm and 665 nm after excitation at 350 nm was measured in a HTRF reader, e.g. a Rubystar (BMG Labtechnologies, Offenburg, Germany) or a Viewlux (Perkin-Elmer). The ratio of the emissions at 665 nm and at […] was taken as the measure for the amount of phosphorylated substrate peptide. The data were normalised (enzyme reaction without inhibitor=0% inhibition, all other assay components but no enzyme=100% inhibition) and IC50 values were calculated by a 4 parameter fit using an inhouse software.

[1] = molecular target: T1, human insuline receptor (Ins-R) (Homo sapiens, UniProt P06213); assay: InsR HTRF assay (selectivity vs. Tie2 assay 2); type: biochemical; settings: IC50 assay 4/IC50 assay 2
T1 construct: GST-tagged recombinant kinase domain of the human insuline receptor; GST; purchased ProQinase, Freiburg, Germany; host or cells: SF-9 cells
Description: Inhibitory activity of compounds against the kinase activity of the insulin receptor was quantified employing the Ins-R HTRF assay as described in the following paragraphs.
GST-tagged recombinant kinase domain of the human insuline receptor (Ins-R, purchase from ProQinase, Freiburg, Germany) expressed in SF-9 cells was used as kinase. As substrate for the kinase reaction biotinylated poly-(Glu,Tyr) (Cis biointernational, France) was used.
Ins-R was incubated for 20 min at 22° C. in the presence of different concentrations of test compounds in 5 μl assay buffer [50 mM Hepes/NaOH pH 7, 15 mM MnCl2, 1 mM dithiothreitol, 0.1 μM sodium ortho-vanadate, 0.015% (v/v) PEG20000, 10 μM adenosine-tri-phosphate (ATP), 0.3 μg/ml substrate, 1% (v/v) dimethylsulfoxide]. The concentration of Ins-R was adjusted depending of the activity of the enzyme lot and was chosen appropriate to have the assay in the linear range, typical concentrations were in the range of 10 pg/μL. The reaction was stopped by the addition of 5 μl of a solution of HTRF detection reagents (0.1 μM streptavidine-XLent and 1 nM PT66-Eu-Chelate, an europium-chelate labelled anti-phospho-tyrosine antibody from Perkin Elmer) in an aqueous EDTA-solution (80 mM EDTA, 0.2% (w/v) bovine serum albumin in 50 mM HEPES/NaOH pH 7.0).
as §1, with “substrate” for “substrate peptide”, “ViewLux” for “Viewlux”, “substrate.” for “substrate peptide.”

T1 sequence (P06213 1023-1298 limits assumed): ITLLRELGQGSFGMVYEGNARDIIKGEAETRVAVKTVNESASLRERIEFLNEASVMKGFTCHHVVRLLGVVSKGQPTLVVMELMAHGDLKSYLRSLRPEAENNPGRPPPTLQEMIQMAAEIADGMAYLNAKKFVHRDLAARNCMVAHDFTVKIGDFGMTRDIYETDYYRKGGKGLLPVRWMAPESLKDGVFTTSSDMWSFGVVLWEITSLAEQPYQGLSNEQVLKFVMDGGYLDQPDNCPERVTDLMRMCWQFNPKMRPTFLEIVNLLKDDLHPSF
Sequence of Tie2 (Q02763 770-1124 limits assumed, species assumed): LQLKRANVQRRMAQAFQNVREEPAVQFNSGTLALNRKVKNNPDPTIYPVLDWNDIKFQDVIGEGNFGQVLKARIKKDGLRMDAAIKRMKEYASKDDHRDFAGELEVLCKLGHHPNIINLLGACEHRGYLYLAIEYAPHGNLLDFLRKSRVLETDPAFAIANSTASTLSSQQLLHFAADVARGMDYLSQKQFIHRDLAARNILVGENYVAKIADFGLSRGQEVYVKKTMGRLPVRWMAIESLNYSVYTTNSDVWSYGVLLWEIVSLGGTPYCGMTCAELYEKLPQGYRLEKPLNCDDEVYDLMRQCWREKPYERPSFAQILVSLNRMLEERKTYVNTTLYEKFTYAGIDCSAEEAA

Compound: Cn1ncc2c(-c3ccc(NC(=O)Nc4cc(C(F)(F)F)ccc4F)cc3)cncc21 [Example 1.2, 1-(2-Fluoro-5-trifluoromethyl-phenyl)-3-[4-(1-methyl-1H-pyrazolo[3,4-c]pyridin-4-yl)-phenyl]-urea]
IC50 (Tie2): < 501 nM
Selectivity vs. InsR [1]: >50fold

Compound: Cc1ccc(F)c(NC(=O)Nc2ccc(-c3cncc4c3cnn4C)cc2)c1 [Example 1.3, 1-(2-Fluoro-5-methyl-phenyl)-3-[4-(1-methyl-1H-pyrazolo[3,4-c]pyridin-4-yl)-phenyl]-urea]
IC50 (Tie2): < 501 nM
Selectivity vs. InsR [1]: >50fold

Compound: Cn1ncc2c(-c3ccc(NC(=O)Nc4cccc(C(F)(F)F)c4)cc3)cncc21 [Example 1.4, 1-[4-(1-Methyl-1H-pyrazolo[3,4-c]pyridin-4-yl)-phenyl]-3-(3-trifluoromethyl-phenyl)-urea]
IC50 (Tie2): < 501 nM
Selectivity vs. InsR [1]: >50fold

Compound: Cn1ncc2c(-c3ccc(NC(=O)Nc4cc(C(F)(F)F)ccn4)cc3)cncc21 [Example 1.9, 1-[4-(1-Methyl-1H-pyrazolo[3,4-c]pyridin-4-yl)-phenyl]-3-(4-trifluoromethyl-pyridin-2-yl)-urea]
IC50 (Tie2): < 501 nM
Selectivity vs. InsR [1]: >50fold

Compound: Cn1ncc2c(-c3ccc(NC(=O)Nc4cc(C(F)(F)F)ccc4Cl)cc3)cncc21 [Example 1.13, 1-(2-Chloro-5-trifluoromethyl-phenyl)-3-[4-(1-methyl-1H-pyrazolo[3,4-c]pyridin-4-yl)-phenyl]-urea]
IC50 (Tie2): < 501 nM
Selectivity vs. InsR [1]: >50fold

Compound: Cn1ncc2c(-c3ccc(NC(=O)Nc4cccc(C(F)(F)F)c4)c(F)c3)cncc21 [Example 3.1, 1-[2-Fluoro-4-(1-methyl-1H-pyrazolo[3,4-c]pyridin-4-yl)-phenyl]-3-(3-trifluoromethyl-phenyl)-urea]
IC50 (Tie2): < 501 nM
Selectivity vs. InsR [1]: >50fold

Compound: CN(C(=O)Nc1cccc(C(F)(F)F)c1)c1ccc(-c2cncc3c2cnn3C)cc1 [Example 6.1, 1-Methyl-1-[4-(1-methyl-1H-pyrazolo[3,4-c]pyridin-4-yl)-phenyl]-3-(3-trifluoromethyl-phenyl)-urea]
IC50 (Tie2): 501 to 1000 nM
Selectivity vs. InsR [1]: >25fold

Compound: Cn1ncc2c(-c3ccc(NC(=O)Nc4cc(C(F)(F)F)ccc4F)c(F)c3)cncc21 [Example 6.3, 1-[2-Fluoro-4-(1-methyl-1H-pyrazolo[3,4-c]pyridin-4-yl)-phenyl]-3-(2-fluoro-5-trifluoromethyl-phenyl)-urea]
IC50 (Tie2): < 501 nM
Selectivity vs. InsR [1]: >50fold

Compound: CN1CCN(Cc2ccc(NC(=O)Nc3ccc(-c4cncc5c4cnn5C)cc3)cc2C(F)(F)F)CC1 [Example 6.4, 1-[4-(4-Methyl-piperazin-1-ylmethyl)-3-trifluoromethyl-phenyl]-3-[4-(1-methyl-1H-pyrazolo[3,4-c]pyridin-4-yl)-phenyl]-urea]
IC50 (Tie2): < 501 nM
Selectivity vs. InsR [1]: >50fold

Compound: O=C(Nc1ccc(-c2cncc3c2cnn3CCO)cc1F)Nc1cc(C(F)(F)F)ccc1F [Example 8.1, 1-{2-Fluoro-4-[1-(2-hydroxy-ethyl)-1H-pyrazolo[3,4-c]pyridin-4-yl]-phenyl}-3-(2-fluoro-5-trifluoromethyl-phenyl)-urea]
IC50 (Tie2): < 501 nM
Selectivity vs. InsR [1]: >50fold

Compound: O=C(Nc1cccc(C(F)(F)F)c1)Nc1ccc(-c2cncc3c2cnn3CCO)cc1F [Example 8.5, 1-{2-Fluoro-4-[1-(2-hydroxy-ethyl)-1H-pyrazolo[3,4-c]pyridin-4-yl]-phenyl}-3-(3-trifluoromethyl-phenyl)-urea]
IC50 (Tie2): < 501 nM
Selectivity vs. InsR [1]: >50fold

Compound: CCn1ncc2c(-c3ccc(NC(=O)Nc4cc(C(F)(F)F)ccc4F)cc3)cncc21 [Example 10.5, 1-[4-(1-Ethyl-1H-pyrazolo[3,4-c]pyridin-4-yl)-phenyl]3-(2-fluoro-5-trifluoromethyl-phenyl)-urea]
IC50 (Tie2): < 501 nM
Selectivity vs. InsR [1]: >50fold

Compound: CCn1ncc2c(-c3ccc(NC(=O)Nc4cccc(C(F)(F)F)c4)c(F)c3)cncc21 [Example 11.1, 1-[4-(1-Ethyl-1H-pyrazolo[3,4-c]pyridin-4-yl)-2-fluoro-phenyl]-3-(3-trifluoromethyl-phenyl)-urea]
IC50 (Tie2): < 501 nM
Selectivity vs. InsR [1]: >50fold

The next lines start with the values.

IC50 (Tie2): < 501 nM
Selectivity vs. InsR [1]: >50fold
Compound: CCc1cccc(NC(=O)Nc2ccc(-c3cncc4c3cnn4C)cc2)c1 [Example 1.5, 1-(3-Ethyl-phenyl)-3-[4-(1-methyl-1H-pyrazolo[3,4-c]pyridin-4-yl)-phenyl]-urea]

IC50 (Tie2): < 501 nM
Selectivity vs. InsR [1]: >50fold
Compound: Cc1cc(-c2cncc3c2cnn3C)ccc1NC(=O)Nc1cccc(C(F)(F)F)c1 [Example 4.1, 1-[2-Methyl-4-(1-methyl-1H-pyrazolo[3,4-c]pyridin-4-yl)-phenyl]-3-(3-trifluoromethyl-phenyl)-urea]

IC50 (Tie2): < 501 nM
Selectivity vs. InsR [1]: >50fold
Compound: O=C(Nc1ccc(-c2cncc3c2cnn3CCO)cc1)Nc1cc(C(F)(F)F)ccc1F [Example 8.2, 1-(2-Fluoro-5-trifluoromethyl-phenyl)-3-{4-[1-(2-hydroxy-ethyl)-1H-pyrazolo[3,4-c]pyridin-4-yl]-phenyl}-urea]

IC50 (Tie2): < 501 nM
Selectivity vs. InsR [1]: >50fold
Compound: CN1CCN(Cc2ccc(NC(=O)Nc3ccc(-c4cncc5c4cnn5CCO)cc3)cc2C(F)(F)F)CC1 [Example 8.6, 1-{4-[1-(2-Hydroxy-ethyl)-1H-pyrazolo[3,4-c]pyridin-4-yl]-phenyl}-3-[4-(4-methyl-piperazin-1-ylmethyl)-3-trifluoromethyl-phenyl]-urea]

IC50 (Tie2): < 501 nM
Selectivity vs. InsR [1]: >50fold
Compound: CCn1ncc2c(-c3ccc(NC(=O)Nc4cc(C(F)(F)F)ccc4F)c(F)c3)cncc21 [Example 11.2, 1-[4-(1-Ethyl-1H-pyrazolo[3,4-c]pyridin-4-yl)-2-fluoro-phenyl]-3-(2-fluoro-5-trifluoromethyl-phenyl)-urea]

IC50 (Tie2): < 501 nM
Selectivity vs. InsR [1]: >50fold
Compound: CCn1ncc2c(-c3ccc(NC(=O)Nc4cc(C)ccc4F)c(F)c3)cncc21 [Example 11.3, 1-[4-(1-Ethyl-1H-pyrazolo[3,4-c]pyridin-4-yl)-2-fluoro-phenyl]-3-(2-fluoro-5-methyl-phenyl)-urea]

IC50 (Tie2): < 501 nM
Selectivity vs. InsR [1]: >50fold
Compound: COCCn1ncc2c(-c3ccc(NC(=O)Nc4cccc(C(F)(F)F)c4)cc3)cncc21 [Example 12.1, 1-{4-[1-(2-Methoxy-ethyl)-1H-pyrazolo[3,4-c]pyridin-4-yl]-phenyl}-3-(3-trifluoromethyl-phenyl)-urea]
